# How the values were obtained:
# Type in all cases: in vivo
# [1] = system: normotensive dogs; experiment: Intraocular pressure (IOP) in normotensive dogs
# Method: Compounds from above are tested in vivo to measure its ability to reduce intraocular pressure. Compound 14a is tested in normotensive dogs.
# [2] = system: laser-induced hypertensive monkeys; experiment: Intraocular pressure (IOP) in laser-induced hypertensive monkeys
# [3] = system: lashes and adjacent hairs of patients; experiment: Lash and hair appearance in glaucoma patients treated in one eye only; settings: glaucoma patient treated in one eye
# Excerpt: In the course of treating patients having glaucoma, treatment may only be appropriate in one eye. […] The lash appearance on the lids of the treated eyes would have appeared quite attractive if it represented a bilateral phenomenon. As a result of its asymmetric nature, the long lashes on one side could be construed as disturbing from a cosmetic standpoint. A systemic examination was preformed as a result of the asymmetric phenomenon. It soon became apparent that this altered appearance was not an isolated finding. […] Definite differences could be identified to varying degrees in the lashes and adjacent hairs of all patients who were taking the drug on a unilateral basis for longer than 6 months.
# The changes in the lashes were apparent on gross inspection in several patients once attention was focused on the issue. In those with light colored hair and lashes, the differences were only seen easily with the aid of the high magnification and lighting capabilities of the slit lamp biomicroscope. In the course of glaucoma follow-up examination, attention is generally immediately focused on the eye itself. As a result of the high power magnification needed only one eye is seen at a time and the eye is seen at a high enough power that the lashes are not in focus. […]
Compound,intraocular pressure (IOP) change from baseline [1],intraocular pressure (IOP) change from baseline [2],"lash appearance, treated eye versus non-treated eye [3]"
CCCCCCc1ccc(C2C(O)CC(Cl)C2CC=CCCCC(=O)OCCO)cc1 (centres unmarked) [Compound 63a],decreases from baseline,decreases from baseline,–
CCCCCC(O)c1ccc(C2C(O)CC(Cl)C2CC=CCCCC(=O)OCCN2CCOCC2)cc1 (centres unmarked) [Compound 68b],decreases from baseline,decreases from baseline,–
CCCCCC(O)c1ccc(C2C(O)CC(Cl)C2CC=CCCCC(=O)OCCN2CCOCC2)cc1 (centres unmarked) [Compound 46b],decreases from baseline,decreases from baseline,–
CCCCCC(O)c1ccc(C2C(O)CC(Cl)C2CCCc2ncc(C(=O)OCCN3CCOCC3)s2)cc1 (centres unmarked) [Compound 34b],decreases from baseline,decreases from baseline,–
CCCCCC(O)c1ccc(C2C(O)CC(Cl)C2CCCc2ncc(C(=O)OCCO)s2)cc1 (centres unmarked) [Compound 34a],decreases from baseline,decreases from baseline,–
CCCCCC(O)c1ccc(C2C(O)CC(Cl)C2CC=CCCCC(=O)OCCO)cc1 (centres unmarked) [Compound 68a],decreases from baseline,decreases from baseline,–
CCCCCC(O)c1ccc(C2C(O)CC(Cl)C2CC=CCCCC(=O)OCCO)cc1 (centres unmarked) [Compound 51a],decreases from baseline,decreases from baseline,–
CCCCCC(O)c1ccc(C2C(O)CC(Cl)C2CC=CCCCC(=O)OCCO)cc1 (centres unmarked) [Compound 46a],decreases from baseline,decreases from baseline,–
CCCCCC(O)c1ccc(C2C(O)CC(Cl)C2Cc2cccc(CCC(=O)OCCN3CCOCC3)c2)cc1 (centres unmarked) [Compound 25b],decreases from baseline,decreases from baseline,–
CCCCCC(O)c1ccc(C2C(O)CC(F)C2CC=CCCCC(=O)OCCN2CCOCC2)cc1 (centres unmarked) [Compound 40b],decreases from baseline,decreases from baseline,–
CCCCCC(O)c1ccc(C2C(O)CC(Cl)C2CC=CCCCC(=O)OCCN2CCOCC2)cc1 (centres unmarked) [Compound 51b],decreases from baseline,decreases from baseline,–
CCNC(=O)CCC/C=C\C[C@@H]1[C@@H](/C=C/[C@@H](O)CCc2ccccc2)[C@H](O)C[C@@H]1O [bimatoprost],–,–,"longer, thicker, and fuller in the treated eye than in the non-treated eye"
CCCCCCc1ccc(C2C(O)CC(Cl)C2CC=CCCCC(=O)OCCN2CCOCC2)cc1 (centres unmarked) [Compound 63b],decreases from baseline,decreases from baseline,–
CCCCCC(O)c1ccc(C2C(O)CC(F)C2CC=CCCCC(=O)OCCO)cc1 (centres unmarked) [Compound 40a],decreases from baseline,decreases from baseline,–
CCCCCC(O)c1ccc(C2C(O)CC(Cl)C2Cc2cccc(CCC(=O)OCCO)c2)cc1 (centres unmarked) [Compound 25a],decreases from baseline,decreases from baseline,–

# — US7732443B2, “Therapeutic substituted cyclopentanes” (priority 2008, dated 2010)
